# Data reported in patent US9752151B2, “Composition for treatment or metastasis suppression of cancers which includes p34 expression inhibitor or activity inhibitor as active ingredient” (THE ASAN FOUNDATION, priority 2013, dated 2017).
# T1: p34 protein and NEDD4-1 protein (Homo sapiens, UniProt Q9UHV2)
# T1 construct: made in house; host or cells: E. coli BL-21 (DE3) (printed for GST-p34 in the earlier pull-down)
# T1 sequence (Q9UHV2 1-236): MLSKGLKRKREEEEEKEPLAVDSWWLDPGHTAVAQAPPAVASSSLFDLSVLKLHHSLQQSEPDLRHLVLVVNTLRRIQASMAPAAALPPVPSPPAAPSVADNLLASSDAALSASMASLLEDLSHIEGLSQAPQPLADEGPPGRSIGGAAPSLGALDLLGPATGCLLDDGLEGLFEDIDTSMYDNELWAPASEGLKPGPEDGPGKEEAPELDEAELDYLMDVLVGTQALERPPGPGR
# T2: GST-tagged NEDD4-1 mutant lacking WW1 domain (GST-delWW1) (UniProt P46934-4 1-900, limits assumed)
# T2 construct: also called NEDD4-1 protein lacking the WW1 domain; not shown: GST tag
# T2 sequence (looked up): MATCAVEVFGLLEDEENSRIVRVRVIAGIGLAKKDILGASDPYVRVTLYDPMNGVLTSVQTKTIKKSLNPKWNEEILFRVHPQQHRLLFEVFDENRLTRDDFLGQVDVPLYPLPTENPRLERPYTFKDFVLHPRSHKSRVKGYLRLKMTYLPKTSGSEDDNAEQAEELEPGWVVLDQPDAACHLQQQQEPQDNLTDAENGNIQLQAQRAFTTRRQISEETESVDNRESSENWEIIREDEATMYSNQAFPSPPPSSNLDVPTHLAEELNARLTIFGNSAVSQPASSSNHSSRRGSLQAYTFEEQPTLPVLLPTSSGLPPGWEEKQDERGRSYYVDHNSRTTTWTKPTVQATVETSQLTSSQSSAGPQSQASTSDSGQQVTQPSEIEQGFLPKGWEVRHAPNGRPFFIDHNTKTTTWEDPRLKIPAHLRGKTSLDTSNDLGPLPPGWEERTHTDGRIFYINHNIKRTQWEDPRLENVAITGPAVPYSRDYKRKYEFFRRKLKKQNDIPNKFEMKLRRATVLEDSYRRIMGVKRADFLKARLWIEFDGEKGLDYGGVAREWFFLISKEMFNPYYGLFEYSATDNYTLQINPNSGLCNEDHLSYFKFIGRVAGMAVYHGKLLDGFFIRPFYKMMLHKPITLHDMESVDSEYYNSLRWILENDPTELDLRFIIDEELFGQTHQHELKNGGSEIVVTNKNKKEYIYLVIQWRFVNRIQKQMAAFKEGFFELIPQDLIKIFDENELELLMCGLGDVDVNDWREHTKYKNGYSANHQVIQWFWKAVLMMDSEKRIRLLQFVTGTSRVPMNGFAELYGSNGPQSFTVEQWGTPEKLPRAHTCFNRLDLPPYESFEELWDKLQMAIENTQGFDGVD
# Assays:
# PTEN [1] = assay: PTEN lipid phosphatase activity, MDA-MB-231; format: cell-based, human; details: MDA-MB-231, 48 hours, OD 650 nm
# Protocol: (§1) Also, human breast cancer cell lines MDA-MB-231 were treated with p34 activity inhibitor Compound 27 per each concentration for 48 hours, and cell sap was collected and immunoprecipitation was performed using a PTEN antibody. Thereafter, it was reacted with a reaction buffer solution (100 mM Tris-HCl pH8.0, 10 mM DTT) containing water-soluble diC8-phosphatidylinositol 3,4,5 tri-phosphate at 37° C. for 40 minutes, and only the supernatant was collected to be reacted with Biomol Green solution at room temperature for 30 minutes. Then, PTEN lipid phosphatase activity was measured at OD 650 nm. The result is illustrated in FIG. 65.
# PTEN [2] = assay: PTEN ubiquitination (PTEN immunoprecipitation, ubiquitin Western blotting) in LS1034; format: cell-based, human; details: 1 μM, 24 hours
# Protocol: (§2) The p34 activity inhibitor, Compound 27, in a concentration of 1 μM was treated with human breast cancer cell lines MDA-MB-231 and colorectal cancer cell lines LS1034 for 24 hours, and immunoprecipitation was performed using a PTEN antibody. Thereafter, Western blotting was performed using an ubiquitin antibody. The result is illustrated in FIG. 62.
# [3] = test system: PTEN protein, Akt, caspase3; assay: Western blotting after p34 activity inhibitor, MDA-MB-231; format: cell-based, human; details: MDA-MB-231, 48 hours
# Protocol: (§3) Human breast cancer cell lines MDA-MB-231 were treated with the p34 activity inhibitor Compound 27 per each concentration for 48 hours, and then trypan blue dye and Western blotting were performed. The result is illustrated in FIG. 64.
# MDA-MB-231 = assay: Trypan blue dye cell death, MDA-MB-231; format: cell-based, human; details: MDA-MB-231, per each concentration, 48 hours
# Protocol: as §3
# [4] = test system: PTEN protein, Akt, caspase3; assay: Western blotting after p34 activity inhibitor, LS1034; format: cell-based, human; details: LS1034, 48 hours
# Protocol: as §3
# (§4) The same experiments were performed using human colorectal cancer cell lines LS1034. The results are illustrated in FIGS. 66 and 67.
# PTEN [5] = assay: PTEN ubiquitination (PTEN immunoprecipitation, ubiquitin Western blotting) in MDA-MB-231; format: cell-based, human; details: 1 μM, 24 hours
# Protocol: as §2
# PTEN [6] = assay: PTEN lipid phosphatase activity, LS1034; format: cell-based, human; details: LS1034, 48 hours, OD 650 nm
# Protocol: as §1, §4
# [7] = target: T1, p34 protein and NEDD4-1 protein; assay: GST-pull down of p34 and NEDD4-1 proteins binding; details: 1 mM or 3 mM, 30° C., 1 hour, purified proteins
# Protocol: Purified NEDD4-1 protein and p34 protein were treated with a reaction buffer (20 mM Tris-HCl pH7.5, 120 mM NaCl) and the p34 activity inhibitor Compound 27 in a concentration of 1 mM or 3 mM, and reacted at 30° C. for 1 hour. Thereafter, the reaction was stopped using GST-pull down buffer (20 mM Tris-HCl pH8.0, 500 mM NaCl, 1% Triton X-100, 0.02% BSA, 5 mM mercaptoethanol), and then pulled down with glutathione-sepharose beads at 4° C. Western blotting was performed using anti-His and anti-GST antibodies. The result is illustrated in FIG. 63.
# LS1034 = assay: Trypan blue dye cell death, LS1034; format: cell-based, human; details: LS1034, per each concentration, 48 hours
# Protocol: as §3, §4
# PTEN protein [8] = assay: Western blotting after co-transfection of GFP-tagged p34 and NEDD4-1-siRNA/shRNA, 293 cells; format: cell-based; details: 293 cells co-transfected with GFP-tagged p34; decreased with GFP-tagged p34 alone
# Protocol: (§5) The expression levels of each protein were analyzed using Western blotting. The result is illustrated in FIG. 23.
# PTEN protein [9] = assay: Western blotting after co-transfection of GFP-tagged p34 and NEDD4-1-siRNA/shRNA, MEF cells; format: cell-based, mouse; details: MEF cells co-transfected with GFP-tagged p34; decreased with GFP-tagged p34 alone
# Protocol: as §5
# GST-PTEN fusion protein [10] = target: T3, GST-PTEN fusion protein (UniProt P60484 1-403); assay: GST pull-down with purified recombinant GST-PTEN, Western blotting (FIG. 8)
# T3 construct: Purified recombinant protein; also called purified recombinant GST-PTEN; not shown: GST tag
# T3 sequence (P60484 whole entry, the tested form may be a part): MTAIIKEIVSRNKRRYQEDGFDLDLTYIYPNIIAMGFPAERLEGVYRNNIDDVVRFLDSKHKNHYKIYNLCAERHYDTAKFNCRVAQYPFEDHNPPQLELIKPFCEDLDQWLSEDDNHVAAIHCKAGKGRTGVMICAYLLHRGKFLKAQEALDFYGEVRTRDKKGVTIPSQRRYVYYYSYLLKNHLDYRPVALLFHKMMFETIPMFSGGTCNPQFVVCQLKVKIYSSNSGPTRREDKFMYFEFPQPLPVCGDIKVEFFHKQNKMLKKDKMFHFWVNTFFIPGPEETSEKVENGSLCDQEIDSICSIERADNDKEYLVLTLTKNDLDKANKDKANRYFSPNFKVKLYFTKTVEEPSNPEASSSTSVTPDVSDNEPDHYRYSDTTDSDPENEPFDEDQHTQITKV
# [11] = target: T2, GST-tagged NEDD4-1 mutant lacking WW1 …; assay: GST pull-down of GST-delWW1 with lysate of cells expressing His-p34 (FIG. 10)
# Protocol: (2) In order to verify the above result, plasmids containing GST-tagged wild-type NEDD4-1 mutants lacking WW1 domain (GST-delWW1) were prepared. The mutant proteins of NEDD4-1 were incubated with a lysing solution isolated from cells expressing His-p34, and then GST-pull down assay was performed. The result is illustrated in FIG. 10.
# GST-PTEN fusion protein [12] = target: T3, GST-PTEN fusion protein; assay: GST pull-down of GST-PTEN with lysate of cells expressing Myc-NEDD4-1 and His-p34 (FIG. 11)
# Protocol: In order to investigate whether p34 affects PTEN and NEDD4-1 binding, GST-PTEN fusion proteins were incubated with the lysing solution of cells expressing Myc-NEDD4-1 and His-p34, and then GST-pull down assay was performed. As a control group, GST proteins were used. The result is illustrated in FIG. 11.
molecule,measurement,setting,value
Cc1[nH]c2ccc(-c3nnc(OCC(=O)NC(C)c4nc5ccccc5[nH]4)o3)cc2c1C (stereo not drawn) [Compound 27],PTEN lipid phosphatase activity,PTEN [1],increased PTEN lipid phosphatase activity
same,PTEN ubiquitination,PTEN [2],inhibiting PTEN ubiquitination
same,Akt dephosphorylation,[3],Akt dephosphorylation occurred
same,PTEN protein,[3],reactivated
same,caspase3 activation,[3],caspase3 was activated
same,cell death,MDA-MB-231,cell death was induced
same,Akt dephosphorylation,[4],Akt dephosphorylation occurred
same,PTEN protein,[4],reactivated
same,caspase3 activation,[4],caspase3 was activated
same,PTEN ubiquitination,PTEN [5],inhibiting PTEN ubiquitination
same,PTEN lipid phosphatase activity,PTEN [6],increased PTEN lipid phosphatase activity
same,p34 protein and NEDD4-1 protein binding,[7],inhibited the p34 protein and the NEDD4-1 protein binding in a dose dependent manner
same,cell death,LS1034,cell death was induced
"NEDD4-1-siRNA/shRNA: NEDD4-1-siRNA: 5′-TGGCGATTTGTAAACCGAA-3′ (SEQ ID NO 4) (listed as DNA, chemistry not given here)",levels of PTEN protein,PTEN protein [8],remained substantially unchanged
same,levels of PTEN protein,PTEN protein [9],remained substantially unchanged
"p34 protein (construct not stated) (other, UniProt Q9UHV2 1-236, looked up, also called purified p34 protein) MLSKGLKRKREEEEEKEPLAVDSWWLDPGHTAVAQAPPAVASSSLFDLSVLKLHHSLQQSEPDLRHLVLVVNTLRRIQASMAPAAALPPVPSPPAAPSVADNLLASSDAALSASMASLLEDLSHIEGLSQAPQPLADEGPPGRSIGGAAPSLGALDLLGPATGCLLDDGLEGLFEDIDTSMYDNELWAPASEGLKPGPEDGPGKEEAPELDEAELDYLMDVLVGTQALERPPGPGR",binding result,GST-PTEN fusion protein [10],no binding
"His-tagged p34 (other, UniProt Q9UHV2 1-236, looked up, Expressed in cells and used as lysate; also called His-p34; not shown: His tag) MLSKGLKRKREEEEEKEPLAVDSWWLDPGHTAVAQAPPAVASSSLFDLSVLKLHHSLQQSEPDLRHLVLVVNTLRRIQASMAPAAALPPVPSPPAAPSVADNLLASSDAALSASMASLLEDLSHIEGLSQAPQPLADEGPPGRSIGGAAPSLGALDLLGPATGCLLDDGLEGLFEDIDTSMYDNELWAPASEGLKPGPEDGPGKEEAPELDEAELDYLMDVLVGTQALERPPGPGR",binding result,[11],no binding
same,binding result,GST-PTEN fusion protein [12],no binding
